Results from patent publication US11458138B2 (Novartis AG, priority 2017, dated 2022).
Entries after “also recorded” stand apart in the source; their conditions may differ.

What was measured:
[1] = tested on: human corneal endothelial cells (CECs); assay: CEC population expansion, markers Collagen 8a2, AQP1, SLC4A11, RPE65, CD31 and Na/K ATPase (RT-PCR, immunohistochemistry); assay type: cell-based; details: 10 micromolar, 10 days
Method: In order to verify that the expanded cell population expresses genes normally expressed by corneal endothelial cells in vivo, cells were cultured and RT-PCR analysis was then performed to measure the expression levels of Collagen 8a2, AQP1, SLC4A11, RPE65 and CD31. Immunohistochemical analysis was also performed to analyse the levels of Na/K ATPase and Collagen 8a2 as follows.
(§1) Cells were cultured at 37° C. in 5% CO2 for 10 days.
To perform the RT-PCR analysis, total RNA was extracted using Trizol (Invitrogen), RNeasy Mini and QIA Shredder (Qiagen) according to manufacturer's protocol. RNA quality and quantity were measured using Nanodrop 100 (Thermo-Fisher Scientific) and Bioanalyzer 2100 (Agilent Technologies). cDNA was prepared by reverse transcription and relative mRNA expression was assessed by quantitative RT-PCR using an 7900HT system (Applied Biosystems). The following cycling parameters were used:
1) 50° C. for 2 minutes; 2) 95° C. for 10 minutes; 3) 95° C. for 15 seconds 4) 60° C. for 1 minute. Steps 3-4 were repeated 40 times.
Actin mRNA levels were measured and used as a endogenous controls to normalize gene expression levels and calculate delta Ct values according to the formula dCt=Ct for gene of interest−Ct for endogenous control. Primers were obtained from Applied Biosystems. […]

[2] = tested on: human corneal endothelial cells (CECs); assay: CEC population expansion, immunohistochemical observation of cellular morphology (ZO-1); assay type: cell-based; details: 10 micromolar, 10 days
Method: as §1
In order to observe that the expanded cell population has the required cellular morphology for use in vivo, the ability of the cells to form tight junctions was measured by immunohistochemistry as follows. Cell cultures were fixed with 4% PFA for 20 minutes, permeabilized and blocked in a blocking solution of 0.3% Triton X-100 (Sigma-Aldrich) and 3% donkey serum in PBS for 30 minutes. Cells were then labeled with primary antibody in the blocking solution for 12 hours at 4° C. Primary antibody used was ZO-1 from Invitrogen. Samples were washed in PBS three times and donkey-raised secondary antibody Alexa Fluor 488 (Molecular Probes) at 1:500 dilution were applied for 30 minutes at room temperature. Cells were washed three times in PBS and nuclei (DNA) were stained with Sytox Orange (567 nm, Life Technologies). […] Fluorescence was observed using a Zeiss LSM 880 confocal microscope.

[3] = tested on: human keratinocytes (HaCaT); assay: In vitro YAP pathway activation and cell proliferation in human keratinocytes (HaCaT); assay type: cell-based
Source text: Accordingly, Example 133 is useful in promoting skin regeneration.

[4] = tested on: Cyr61 mRNA in liver; assay: In vivo treatment of mice: quantitative RT-PCR, Cyr61; details: mouse liver, single oral dose 10 mg/kg, 2 h post-dose, relative to vehicle, mean+/-SEM
Method: (§2) All animal studies were carried out in accordance with federal, state, local and institutional guidelines governing the use of laboratory animals in research. Male C57BL/6J mice (age 8-10 weeks) were purchased from Jackson Labs (Bar Harbor, Me.). Example 46 was formulated for oral dosing at 3 mg/ml, and Example 261 at 1 mg/ml, in a suspension of methylcellulose:Tween80:Water (0.5:0.5:99). Single oral dose of either compound was at 10 mL/kg body weight. Blood and liver tissue were collected under deep anesthesia (isoflurane) at either 2 h post-dose (for mRNA analysis) or 24 h post-dose (for immunohistochemistry).
Total liver RNA was isolated from tissue after storage in RNAlater reagent (Qiagen), using a TRIzol method according to the manufacturer's instructions (Life Technologies). Relative mRNA abundance was measured by quantitative RT-PCR using TaqMan gene expression assays and reagents according to standard protocols (Applied Biosystems). Mouse probes for YAP target genes were CTGF (Mm01192933_g1) and Cyr61 (Mm00487498_m1). […] Relative changes in mRNA were calculated by the ΔΔCt method. Changes in gene expression with compound treatment are expressed as fold-change relative to the vehicle group.

[5] = tested on: Phospho-YAP (SER127) in liver tissue; assay: In vivo treatment of mice: Phospho-YAP (pYAP) HTRF in liver tissue; details: mouse liver, single oral dose 10 mg/kg
Method: as §2
Frozen liver tissue was transferred into a Lysing Matrix tube (MP, cat #6913-500) with a 1:50 solution of Protease inhibitor (Sigma-Aldrich, cat #P8340) in Phosphosafe extraction buffer (Novagen, cat #71296-3) and homogenized using the FastPrep-24 (MP biomedicals). […] The protein concentration was measured using the BCA Protein Assay Kit (Pierce cat. 23227) following the manufacturer's protocol. […] The same input quantity was used for each sample, based on total protein content (30-60 ug per sample per well). […] Plates were read on an EnVision (PerkinElmer) with emission wavelengths of 665 nm & 620 nm. The HTRF signal ratio was calculated as Signal(665 nm)/Signal(620 nm))×10000 as specified in the manufacturer's protocol. […]

[6] = tested on: Ki67-positive hepatocytes; assay: In vivo treatment of mice: immunohistochemistry (IHC) for Ki67 in liver; details: mouse liver, single oral dose 10 mg/kg, 24 h post-dose, relative to vehicle, mean+/-SEM
Method: as §2
Liver tissue was fixed in 10% neutral buffered formalin for 24-48 h. Processing and embedding in paraffin was by standard procedures. Sections were cut at 5 microns thickness and stained using a Ventana automated system. Primary antibody for mouse Ki67 was a rabbit IgG (Bethyl Labs). Ki67-positive hepatocytes were quantified by image analysis using the HALO platform. At least 3 sections per animal were analyzed, from the middle of the medial lobe.

For `CC(C)(O)CC(C)(C)Nc1nc(-c2ccncc2)nc2cnccc12` [Example 49, 2,4-dimethyl-4-{[2-(pyridin-4-yl)pyrido[3,4-d]pyrimidin-4-yl]amino}pentan-2-ol], the “Expression of corneal endothelial cell genes by the expanded CEC population” value [1] was “express genes normally expressed by corneal endothelial cells in vivo, including Collagen 8a2, AQP1, SLC4A11; also recorded: express genes normally expressed by corneal endothelial cells in vivo, including Na/K ATPase” and the “CEC morphology and tight junctions (ZO-1)” value [2] was “retained a normal corneal endothelial cell morphology and the ability to form tight junctions”.

With `Cc1n[nH]cc1-c1nc(NC2(C)CC2)c2ccncc2n1` [Example 133, 2-(3-methyl-1H-pyrazol-4-yl)-N-(1-methylcyclopropyl)pyrido[3,4-d]pyrimidin-4-amine] the “YAP pathway activation in vitro” value [3] was “activated the YAP pathway” and the “cell proliferation in human keratinocytes (HaCaT)” value [3] was “promoted cell proliferation”.

`CC(C)(C)Nc1cc(-c2ccncc2)nc2cnccc12` [Example 261, N-(tert-butyl)-2-(pyridin-4-yl)-1,7-naphthyridin-4-amine] was tested, and the “Cyr61 mRNA (fold-change)” value [4] was 3.9 (+/−0.6) fold-change, the “pYAP (% of control)” value [5] was 60 % of control and the “Ki67 IHC (fold-change)” value [6] was 3.1 (+/−0.5) fold-change.
